Experimental data: PMC6030159 (Scientific Reports, 2018)
Entries after “also recorded” stand apart in the source; their conditions may differ. Where two headings read alike, the source gives them in different places.

What was measured:
MYC bHLHZip [1] = biological target: T1, MYC bHLHZip (Homo sapiens, UniProt P01106); experiment: SPR direct binding to immobilized MYC
T1 construct: 6xHis (N); made in house; host or cells: E. coli BL21 (DE3), pET28a; purified in denaturing conditions
Description: Further, MYCMI-6 binding to MAX, MXD1 (MAD1) (Figs 4C and S5C and D), p53 (Fig. 4D), BSA (Suppl. Fig. S5E) and YFP (data not shown) were negligible. Binding to BCL-XL was only 10% of the theoretical maximum at 2 μM MYCMI-6 (Suppl. Fig. S5F).
The MYC SPR assay was carried out as described above with MYCbHLHZip immobilized to a level of 800–1000 RU. For kinetic binding experiments, a Langmuir 1:1 binding event was applied using the Biacore T200 Evaluation Software 2.0 (GE Healthcare) to determine association (ka) and dissociation (kd) constants of the compound and to calculate affinity (KD) by the formula; KD = kd/ka. Binding responses from equilibrium binding experiments were plotted against compound concentration and KD values were determined at 50% of the theoretical Rmax with the formula Rmax = (MW analyte/MW ligand) × immobilized ligand level on the chip (RU) × stoichiometry (1:1). Same coupling method described above was used to immobilize the control proteins. MAX was immobilized to approximately 2000 RU, MAD to 600 RU, BSA to 1000 RU, p53 to 3000 RU and BCL-XL, to 500 RU.

[2] = tested on: HOmyc3 (MYC reconstituted HO15.19) Rat1 fibroblasts; experiment: WST-1 growth assay, HOmyc3 (MYC reconstituted) Rat1 fibroblasts; type: cell-based, rat
Description: Cell proliferation assays. Cell growth and viability was estimated in triplicates with WST-1
(Roche) or Resazurin sodium salt (Sigma-Aldrich) assays in medium at 37°C and 5% CO 2 for
2 hours after which absorbance or fluorescence, respectively, was measured with an Omega
Fluostar (BMG Labtech) in a 96 well plate format. […]
(§1) 0.7% agarose. […]

[3] = biological target: S-adenosylmethionine decarboxylase (AdoMetDC); design: method as in PMID 17676832; conditions: cited from earlier work
[4] = tested on: MYCN-amplified SK-N-DZ neuroblastoma cells; experiment: Viable/dead cell counting, SK-N-DZ; type: cell-based, human; conditions: 12.5 μM, 24 hours
Description: Cell proliferation assays. […]
Fluostar (BMG Labtech) in a 96 well plate format. Cell counting was done in 96 well plates with CellTracker Green (ThermoFisher) for 30 min in the incubator, after which DAPI was added for 5 min. Images were taken in the green (FITC) and blue (DAPI) channels using a fluorescence microscope (ImageXpress Micro, Molecular Devices). […]
as §1

MYC bHLHZip [5] = biological target: T1, MYC bHLHZip; experiment: MST direct binding to MYC
Description: To determine whether MYCMI-6 binds directly to MYC (or MAX), MST and SPR were applied. The bHLHZip domains of MYC or MAX, respectively (Suppl. Fig. S1C), were titrated and mixed with 3 μM of MYCMI-6.
MST was carried out on a Monolith NT.115 with blue/green filters, kindly provided by Luca Jovine, Karolinska Institutet Huddinge, according to manufacturer’s protocol (NanoTemper). MYCbHLHZip, MAXbHLHZip, BSA and BCL-XL recombinant proteins and compounds were diluted and titrated in PBS supplemented with 0.05% Triton-X-114 or 0.05% Tween-20. Titration of molecules was carried out in 16 PCR tubes into which a fixed concentration of fluorescent molecule was added. The mixture was applied to capillaries (standard treated, NanoTemper), and scanned in the Monolith NT.115 to measure initial fluorescence of molecule. MST was induced and fluorescence was measured during 40 seconds. Double measurements were carried out (MST power of 20% and 40%, or 40% and 60%) for each sample. Delta fluorescence or relative fluorescence of fluorescent molecule normalized to control vehicle was plotted against titrated molecule concentration. The protein labeling kit GREEN-NHS (NanoTemper) was used to label primary amines of proteins according to manufacture’s protocol.

T1 sequence (P01106 367-447 limits assumed): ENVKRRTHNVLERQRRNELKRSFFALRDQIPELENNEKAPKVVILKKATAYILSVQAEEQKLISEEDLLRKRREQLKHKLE

Q: With `CCOc1ccc2nc3cc(/N=N/c4ccc(N)nc4N)ccc3c(N)c2c1` [MYCMI-6] as the molecule, how does the Kd (MYC bHLHZip [1]; 1:1 Langmuir model, four kinetic experiments, read-out: KD for MYC bHLHZip, SPR kinetic experiments, average) read?
A: 1600 ± 500 nM

Q: And the Kd (MYC bHLHZip [1]; 50% of Rmax, four equilibrium experiments, read-out: KD for MYC bHLHZip, SPR equilibrium binding plot)?
A: 1500 to 2000 nM

Q: And the Kd (MYC bHLHZip [1]; Langmuir 1:1, constant Rmax 43 RU, read-out: KD for MYC bHLHZip, SPR, one representative kinetic experiment)?
A: 2500 nM

Q: And the kon (MYC bHLHZip [1]; SPR, representative experiment, read-out: association rate ka)?
A: 9290 M⁻¹ s⁻¹

Q: What about the koff (MYC bHLHZip [1]; SPR, representative experiment, read-out: dissociation rate kd) of the same molecule?
A: 0.0229 s⁻¹

Q: And the “growth of MYC reconstituted (HOmyc3) cells” value [2]?
A: strongly inhibited growth

Q: What about the “IC50 for AdoMetDC relative to MYC:MAX in vitro” value [3] of the same molecule?
A: approximately 10 fold

Q: What about the “cell death and cell number, SK-N-DZ” value [4] of the same molecule?
A: dramatically increased cell death and reduced cell number; also recorded: killed almost 100%

Q: What about the “binding to MYC bHLHZip (MST)” value (MYC bHLHZip [5]; 3 μM MYCMI-6, changes at 1–15 μM of MYC) of the same molecule?
A: binding of MYCMI-6 to MYC

Q: What about the “concentration showing relative changes in thermophoresis of labeled MYC (reverse MST)” value (MYC bHLHZip [5]; labeled MYC approximately 200 nM, MYCMI-6 titrated) of the same molecule?
A: above 100 nM
